For the assay, the target named is T1, hFXR (Homo sapiens, UniProt Q96RI1).
T1 construct: expressed in transfected cells; host or cells: CV-1 cells
T1 sequence (Q96RI1 1-486): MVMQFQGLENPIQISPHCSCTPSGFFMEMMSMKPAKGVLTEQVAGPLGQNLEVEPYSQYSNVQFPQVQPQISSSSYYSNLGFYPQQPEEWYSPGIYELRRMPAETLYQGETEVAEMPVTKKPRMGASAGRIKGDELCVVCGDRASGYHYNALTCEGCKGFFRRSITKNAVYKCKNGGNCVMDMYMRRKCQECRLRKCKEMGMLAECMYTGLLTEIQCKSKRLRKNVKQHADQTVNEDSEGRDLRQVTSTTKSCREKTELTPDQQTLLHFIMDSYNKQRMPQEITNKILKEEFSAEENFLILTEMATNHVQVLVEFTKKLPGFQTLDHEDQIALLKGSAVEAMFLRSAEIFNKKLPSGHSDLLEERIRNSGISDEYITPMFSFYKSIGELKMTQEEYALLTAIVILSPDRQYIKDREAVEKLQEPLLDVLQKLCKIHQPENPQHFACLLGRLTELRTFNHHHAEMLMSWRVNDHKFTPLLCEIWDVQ
T1 sequence (P19793 1-462 partner): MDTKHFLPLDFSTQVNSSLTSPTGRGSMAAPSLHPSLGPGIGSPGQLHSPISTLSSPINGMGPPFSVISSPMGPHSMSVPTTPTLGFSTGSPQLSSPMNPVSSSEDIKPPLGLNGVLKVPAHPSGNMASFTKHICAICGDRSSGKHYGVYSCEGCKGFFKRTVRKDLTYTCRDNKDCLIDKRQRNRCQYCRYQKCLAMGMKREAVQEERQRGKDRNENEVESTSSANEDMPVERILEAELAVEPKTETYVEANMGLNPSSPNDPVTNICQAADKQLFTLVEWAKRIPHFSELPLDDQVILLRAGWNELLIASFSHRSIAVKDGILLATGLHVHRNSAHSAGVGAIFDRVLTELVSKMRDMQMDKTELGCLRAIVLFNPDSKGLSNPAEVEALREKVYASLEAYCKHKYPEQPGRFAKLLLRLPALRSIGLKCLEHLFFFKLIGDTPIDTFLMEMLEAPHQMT
The experiment in a line: In Vitro FXR Assay (TK): TK-ECRE-luc reporter in transfected CV-1 cells. The format is cell-based. The note with it: 18 hrs incubation, luminescence. An outline of the steps:
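CV-1 cells transiently cotransfected with hFXR, hRXR, TK-ECRE-luc reporter and pCMX-YFP plasmids in charcoal-stripped serum medium. Serially diluted compounds added for 18 h at 37° C., then cells lysed and luciferase luminescence measured.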
As for `COc1ccc(C23CCC(CN(c4cc(-c5cnn(C6CCC6)c5)ncn4)C(=O)[C@H]4CC[C@H](OC(=O)N5CC(O)C5)CC4)(CC2)CC3)cc1C` [Compound 23.23, 4-((6-(1-Cyclobutyl-1H-pyrazol-4-yl)pyrimidin-4-yl)((4-(4-methoxy-3-methylphenyl)bicyclo[2.2.2]octan-1-yl)methyl)carbamoyl)(trans-cyclohexyl) 3-hydroxyazetidine-1-carboxylate], the EC50 was not above 50 nM.
For `CCOC(=O)NC[C@H]1CC[C@H](C(=O)N(C[C@H]2CC[C@H](c3ccc(OC)c(C)c3)CC2)c2cccc(-c3cnn(C(C)C)c3)c2)CC1` [Compound 12.03, Ethyl (((trans)-4-((3-(1-isopropyl-1H-pyrazol-4-yl)phenyl)(((trans)-4-(4-methoxy-3-methylphenyl)cyclohexyl)methyl)carbamoyl)cyclohexyl)methyl)car-bamate] the value was 50 to 1000 nM; for `Cn1ccc2nc([C@H]3CC[C@H](CN(c4cccc(-c5cnc(C6CC6)s5)c4)C(=O)[C@H]4CC[C@H](OC(=O)N5CC(O)C5)CC4)CC3)ccc21` [Compound 5.13, trans-4-((3-(2-Cyclopropylthiazol-5-yl)phenyl)(((trans)-4-(1-methyl-1H-pyrrolo[3,2-b]pyridin-5-yl)cyclohexyl)methyl)carbamoyl) cyclohexyl 3-hydroxyazetidine-1-carboxylate], not above 50 nM.
With `COCCNC(=O)O[C@H]1CC[C@H](C(=O)N(CC23CCC(c4ccc(OC)c(C)c4)(CC2)CC3)c2cc(-c3cnn(C(C)C)c3)ccn2)CC1` [Compound 4.49, 4-((4-(1-Isopropyl-1H-pyrazol-4-yl)pyridin-2-yl) ((4-(4-methoxy-3-methylphenyl)bicyclo [2.2.2]octan-1-yl)methyl)carbamoyl)cyclohexyl(2-methoxyethyl)trans-carbamate], the EC50 is not above 50 nM.
In turn, `CC(C)c1ccc(C23CCC(CN(c4cc(-c5cnn(C(C)C)c5)ccn4)C(=O)[C@H]4CC[C@H](OC(=O)N5CC(O)C5)CC4)(CC2)CC3)cc1` [Compound 26.10, 4-((4-(1-Isopropyl-1H-pyrazol-4-yl)pyridin-2-yl)((4-(4-isopropylphenyl)bicyclo[2.2.2]octan-1-yl)methyl)carbamoyl)cyclohexyl trans-3-hydroxyazetidine-1-carboxylate] yielded an EC50 not above 50 nM.
The value for `COc1ccc(C23CCC(CN(c4cc(-c5cnn(C6(C)CCC6)c5)ccn4)C(=O)[C@H]4CC[C@H](OC(=O)N5CC(CO)C5)CC4)(CC2)CC3)cc1C` [Compound 25.21, 4-(((4-(4-Methoxy-3-methylphenyl)bicyclo[2.2.2]octan-1-yl)methyl)(4-(1-(1-methylcyclobutyl)-1H-pyrazol-4-yl)pyridin-2-yl)carbamoyl)(trans-cyclohexyl) 3-(hydroxymethyl)azetidine-1-carboxylate] was not above 50 nM; that for `COc1ccc([C@H]2CC[C@H](CN(c3cccc(-c4coc(C5CC5)n4)c3)C(=O)[C@H]3CC[C@H](C(=O)OC)CC3)CC2)nc1C` [Compound 18, trans-Methyl 4-((3-(2-cyclopropyloxazol-4-yl)phenyl)((trans-4-(5-methoxy-6-methylpyridin-2-yl)cyclohexyl)methyl)carbamoyl)cyclo-hexanecarboxylate] was not above 50 nM; that for `COc1ccc(C23CCC(CN(c4cc(-c5cnn(C6(C)CCC6)c5)ccn4)C(=O)[C@H]4CC[C@H](OC(=O)NCCCO)CC4)(CC2)CC3)cc1C` [Compound 25.17, 4-(((4-(4-Methoxy-3-methylphenyl)bicyclo[2.2.2]octan-1-yl)methyl)(4-(1-(1-methylcyclobutyl)-1H-pyrazol-4-yl)pyridin-2-yl)carbamoyl)(trans-cyclohexyl)(3-hydroxypropyl)carbamate] was not above 50 nM.
The value for `COc1ccc(C23CCC(CN(c4cc(-c5cnn(C(C)C)c5)ccn4)C(=O)[C@H]4CC[C@H](OC(=O)NC(C)(C)CO)CC4)(CC2)CC3)cc1C` [Compound 4.46, 4-((4-(1-Isopropyl-1H-pyrazol-4-yl)pyridin-2-yl) ((4-(4-methoxy-3-methylphenyl)bicyclo [2.2.2]octan-1-yl)methyl)carbamoyl)cyclohexyl trans-(1-hydroxy-2-methylpropan-2-yl) carbamate] was not above 50 nM; that for `COc1ccc(C23CCC(CN(c4cc(-c5cnc(C(C)C)s5)ccn4)C(=O)[C@H]4CC[C@H](OC(=O)NC5COC5)CC4)(CC2)CC3)cc1C` [Compound 4.35, 4-((4-(2-Isopropylthiazol-5-yl)pyridin-2-yl)((4-(4-methoxy-3-methylphenyl)bicyclo[2.2.2]octan-1-yl)methyl)carbamoyl)(trans-cyclohexyl) oxetan-3-ylcarbamate] was not above 50 nM.
`COc1ccc(C23CCC(CN(c4cc(-c5cnn(C(C)C)c5)ccn4)C(=O)[C@H]4CC[C@H](OC(=O)N5CC(N(C)C)C5)CC4)(CC2)CC3)cc1C` [Compound 4.12, 4-((4-(1-Isopropyl-1H-pyrazol-4-yl)pyridin-2-yl)((4-(4-methoxy-3-methylphenyl)bicyclo [2.2.2]octan-1-yl)methyl)carbamoyl)cyclohexyl 3-(dimethylamino) azetidine-trans-1-carboxylate]: the EC50 was not above 50 nM.
In turn, `COc1ccc(C23CCC(CN(c4ccc(F)c(-c5cnn(C(C)C)c5)c4)C(=O)[C@H]4CC[C@H](OC(=O)NCCCO)CC4)(CC2)CC3)cc1C` [Compound 25.08, 4-((4-Fluoro-3-(1-isopropyl-1H-pyrazol-4-yl)phenyl)((4-(4-methoxy-3-methylphenyl)bicyclo[2.2.2]octan-1-yl)methyl)carbamoyl)cyclohexyl trans-(3-hydroxypropyl)carbamate] displayed an EC50 not above 50 nM.
Molecule `COc1ccc(C23CCC(CN(c4cc(-c5cnn(C6(C)CCC6)c5)ccn4)C(=O)[C@H]4CC[C@H](OC(=O)N5CC(S(C)(=O)=O)C5)CC4)(CC2)CC3)cc1C` [Compound 25.19, 4-(((4-(4-Methoxy-3-methylphenyl)bicyclo[2.2.2]octan-1-yl)methyl)(4-(1-(1-methylcyclobutyl)-1H-pyrazol-4-yl)pyridin-2-yl)carbamoyl)(trans-cyclohexyl) 3-(methylsulfonyl)azetidine-1-carboxylate] registered an EC50 not above 50 nM.
For `COc1ccc([C@H]2CC[C@H](CN(c3cc(-c4ccc(N(C)C)nc4)ccn3)C(=O)[C@H]3CC[C@H](OC(=O)N4CC(O)C4)CC3)CC2)cc1C` [Compound 3, trans-4-((6-(Dimethylamino)-[3,4′-bipyridine]-2′-yl)((trans-4-(4-methoxy-3-methylphenyl)cyclohexyl)methyl)carbamoyl)cyclohexyl 3-hydroxyazetidine-1-carboxylate], the EC50 is not above 50 nM.
`COc1ccc(C23CCC(CN(c4cc(-c5coc(C(C)C)n5)ccn4)C(=O)[C@H]4CC[C@H](OC(=O)NCCC(C)(C)O)CC4)(CC2)CC3)cc1C` [Compound 23.06, 4-((4-(2-Isopropyloxazol-4-yl)pyridin-2-yl)((4-(4-methoxy-3-methylphenyl)bicyclo[2.2.2]octan-1-yl)methyl)carbamoyl)(trans-cyclohexyl)(3-hydroxy-3-methylbutyl)carbamate] showed an EC50 not above 50 nM.
With `COc1ccc(C23CCC(CN(c4cc(-c5cnn(C(C)C)c5)ncn4)C(=O)[C@H]4CC[C@H](OC(=O)NCCCO)CC4)(CC2)CC3)cc1C` [Compound 23.19, 4-((6-(1-Isopropyl-1H-pyrazol-4-yl)pyrimidin-4-yl)((4-(4-methoxy-3-methylphenyl)bi-cyclo[2.2.2]octan-1-yl)methyl)carbamoyl)(trans-cyclohexyl) (3-hydroxypropyl)carbamate], the EC50 is not above 50 nM.
For `COc1ccc([C@H]2CC[C@H](CN(c3cc(-c4cnn(C(C)C)c4)ccn3)C(=O)[C@H]3CC[C@H](OC(=O)NC4COC4)CC3)CC2)cc1C` [Compound 2.51] the value was not above 50 nM; for `COc1ccc(C23CCC(CN(c4cc(-c5cnn(C(C)C)c5)ccn4)C(=O)[C@H]4CC[C@H](OC(=O)NCCO)CC4)(CC2)CC3)cc1C` [Compound 4.05, 4-((4-(1-Isopropyl-1H-pyrazol-4-yl)pyridin-2-yl)((4-(4-methoxy-3-methylphenyl)bicyclo [2.2.2]octan-1-yl)methyl)carbamoyl)cyclohexyl (2-hydroxyethyl)trans-carbamate], not above 50 nM.
The molecule `CCc1ncc(-c2ccnc(N(CC34CCC(c5ccc(OC)c(C)c5)(CC3)CC4)C(=O)[C@H]3CC[C@H](OC(=O)N4CC(O)C4)CC3)c2)s1` [Compound 4.20, 4-((4-(2-Ethylthiazol-5-yl)pyridin-2-yl)((4-(4-methoxy-3-methylphenyl)bicyclo[2.2.2]octan-1-yl)methyl)carbamoyl) cyclohexyl 3-hydroxyazetidine-trans-1-carboxylate] returned an EC50 not above 50 nM.

Source of the values: patent US20220056019A1, “FARNESOID X RECEPTOR AGONISTS AND USES THEREOF” (Metacrine, Inc., priority 2018, published 2022).
